# Results as given in PubChem BioAssay (NCI).
#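 Compound exposure: 48 hours, 5 concentrations, 96-well plates. TGI: concentration producing complete growth inhibition.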
# What was measured:
# Experiment in all cases: DTP human tumour cell line panel, 48 h
# [1] = tested on: HOP-62 NSCLC
# [2] = tested on: HT29 colon
# [3] = tested on: TK-10 renal
# [4] = tested on: UO-31 renal
# [5] = tested on: DMS 273 small cell lung
# [6] = tested on: LOX IMVI melanoma
# [7] = tested on: M14 melanoma
# [8] = tested on: OVCAR-4 ovarian
# [9] = tested on: A549 NSCLC
# [10] = tested on: 786-0 renal
# [11] = tested on: U251 CNS
# [12] = tested on: DLD-1 colon
# [13] = tested on: RPMI-8226 leukemia
# [14] = tested on: OVCAR-5 ovarian
# [15] = tested on: SNB-78 CNS
# [16] = tested on: CAKI-1 renal
# [17] = tested on: OVCAR-8 ovarian
# [18] = tested on: KM12 colon
# [19] = tested on: UACC-257 melanoma
# [20] = tested on: DMS 114 small cell lung
# [21] = tested on: ACHN renal
# [22] = tested on: NCI-H23 lung
# [23] = tested on: SN12C renal
# [24] = tested on: SNB-19 CNS
# [25] = tested on: CCRF-CEM leukemia
# [26] = tested on: COLO 205 colon
# [27] = tested on: EKVX NSCLC
# [28] = tested on: SK-MEL-28 melanoma
# [29] = tested on: NCI-H460 lung
# [30] = tested on: A498 renal
# [31] = tested on: KM20L2 colon
# [32] = tested on: UACC-62 melanoma
# [33] = tested on: SK-OV-3 ovarian
# [34] = tested on: NCI-H226 lung
# [35] = tested on: SNB-75 CNS
# [36] = tested on: K-562 leukemia
# [37] = tested on: HCT-15 colon
# [38] = tested on: SF-295 CNS
# [39] = tested on: OVCAR-3 ovarian
# [40] = tested on: LXFL 529 NSCLC
# [41] = tested on: RXF 393 renal
# [42] = tested on: HCT-116 colon
# [43] = tested on: HOP-92 NSCLC
# [44] = tested on: SW-620 colon
# [45] = tested on: M19-MEL melanoma
# [46] = tested on: IGROV1 ovarian
# [47] = tested on: HL-60(TB) leukemia
# [48] = tested on: NCI-H522 lung
# [49] = tested on: SR leukemia
# [50] = tested on: SF-539 CNS
# [51] = tested on: SF-268 CNS
# [52] = tested on: SK-MEL-5 melanoma
# [53] = tested on: MOLT-4 leukemia
# [54] = tested on: SK-MEL-2 melanoma
# [55] = tested on: MALME-3M melanoma
# [56] = tested on: HOP-18 NSCLC
# [57] = tested on: HCC-2998 colon
smiles,measurement,setting,value
CCCCN(CC)C(=O)C(=O)Cc1nc2ccc(C(=O)c3ccccc3)cc2[nH]c1=O,TGI,[1],> 100 µM
same,TGI,[2],> 100 µM
same,TGI,[3],> 100 µM
same,TGI,[4],> 100 µM
same,TGI,[5],> 100 µM
same,TGI,[6],> 100 µM
same,TGI,[7],> 100 µM
same,TGI,[8],> 100 µM
same,TGI,[9],> 100 µM
same,TGI,[10],> 100 µM
same,TGI,[11],> 100 µM
same,TGI,[12],> 100 µM
same,TGI,[13],> 31.6 µM
same,TGI,[14],> 100 µM
same,TGI,[15],> 100 µM
same,TGI,[16],> 100 µM
same,TGI,[17],> 100 µM
same,TGI,[18],> 100 µM
same,TGI,[19],> 100 µM
same,TGI,[20],> 100 µM
same,TGI,[21],> 100 µM
same,TGI,[22],> 100 µM
same,TGI,[23],> 100 µM
same,TGI,[24],> 100 µM
same,TGI,[25],> 31.6 µM
same,TGI,[26],> 100 µM
same,TGI,[27],> 100 µM
same,TGI,[28],> 100 µM
same,TGI,[29],> 100 µM
same,TGI,[30],> 100 µM
same,TGI,[31],> 100 µM
same,TGI,[32],> 100 µM
same,TGI,[33],> 100 µM
same,TGI,[34],> 100 µM
same,TGI,[35],> 88.1 µM
same,TGI,[36],> 31.6 µM
same,TGI,[37],> 100 µM
same,TGI,[38],> 100 µM
same,TGI,[39],> 100 µM
same,TGI,[40],> 100 µM
same,TGI,[41],92 µM
same,TGI,[42],> 100 µM
same,TGI,[43],> 100 µM
same,TGI,[44],> 100 µM
same,TGI,[45],> 100 µM
same,TGI,[46],> 100 µM
same,TGI,[47],> 31.6 µM
same,TGI,[48],75 µM
same,TGI,[49],> 31.6 µM
same,TGI,[50],> 100 µM
same,TGI,[51],> 100 µM
same,TGI,[52],> 100 µM
same,TGI,[53],> 31.6 µM
Nc1nc(=O)n(C2CCC(CO)O2)cc1F (stereo not drawn),TGI,[1],> 100 µM
same,TGI,[54],> 100 µM
same,TGI,[2],> 100 µM
same,TGI,[3],> 100 µM
same,TGI,[4],> 100 µM
same,TGI,[5],> 100 µM
same,TGI,[6],> 100 µM
same,TGI,[7],> 100 µM
same,TGI,[8],> 100 µM
same,TGI,[55],> 100 µM
same,TGI,[9],> 100 µM
same,TGI,[10],> 100 µM
same,TGI,[11],> 100 µM
same,TGI,[12],> 100 µM
same,TGI,[13],> 100 µM
same,TGI,[14],> 100 µM
same,TGI,[15],> 100 µM
same,TGI,[16],> 100 µM
same,TGI,[17],> 100 µM
same,TGI,[18],> 100 µM
same,TGI,[19],> 100 µM
same,TGI,[20],> 100 µM
same,TGI,[21],> 100 µM
same,TGI,[56],> 100 µM
same,TGI,[57],> 100 µM
same,TGI,[22],> 100 µM
same,TGI,[23],> 100 µM
same,TGI,[24],> 100 µM
same,TGI,[25],> 100 µM
same,TGI,[26],> 100 µM
same,TGI,[27],> 100 µM
same,TGI,[28],> 100 µM
same,TGI,[29],> 100 µM
same,TGI,[31],> 100 µM
same,TGI,[33],> 100 µM
same,TGI,[34],> 100 µM
same,TGI,[35],> 100 µM
same,TGI,[36],> 100 µM
same,TGI,[37],> 100 µM
same,TGI,[38],> 100 µM
same,TGI,[39],> 100 µM
same,TGI,[40],> 100 µM
same,TGI,[41],> 100 µM
same,TGI,[43],> 100 µM
same,TGI,[44],> 100 µM
same,TGI,[47],> 100 µM
same,TGI,[48],> 100 µM
same,TGI,[51],> 100 µM
same,TGI,[52],> 100 µM
same,TGI,[53],> 100 µM
